What was measured:
[1] = test system: BECN1, SQSTM1/p62, (phospho)p42/44 MAPK; experiment: Immunoblot of autophagy and inflammation markers in CFBE cells; format: cell-based; conditions: 0.1 μM
Method: Cell lines experiments. CFBE41l- and 16HBE14o-cells were cultured in Minimum Essential Medium (MEM) with Earle's salt, 200 mM L-Glutamine, 10% FBS and penicillin/streptomycin. […]
(§1) The proteins of cell lines lysates or lung or small intestine homogenates, obtained from treated and untreated cells or mice, were quantified by a Bio-Rad protein assay to ensure equal protein loading before immunoblot analysis. Fifty micrograms of proteins were loaded in each lane. Antibodies against SQSTM1, (Sigma Aldrich,P0067) 1:1000, BECN1 (Abcam, ab58878), 1:1000, CFTR clone CF3 (Abcam, ab2784) 1:1000 or anti-CFTR antibody 660 1:1000, Phospho-p44/42 MAPK (Erk1/2) (Thr202/Tyr204) (Cell Signaling Technology, #91101) 1:1000, TG2 (CUB7402, NEOMARKER) 1:1000 were used. Normalization was performed by probing the membrane with anti-β-actin (Cell Signaling, #4970) 1:1000 or anti-α-tubulin (Cell Signaling Technology, 2148) 1:1000.

CFTR [2] = molecular target: T1, CFTR (Mus musculus, UniProt P26361, DEL508-508); experiment: Immunoblot of CFTR protein levels in tissues of CftrF508del mice; format: in vivo; conditions: i.p. 5 d, then 20 d of wash out, lung and small intestinal tissue
T1 construct: the Ussing chamber experiments (on small intestinal tissues); from tissue; host or cells: small intestine (Ussing chamber); lung and small intestine homogenates (immunoblot) of CftrF508del mice
T1 sequence (P26361 with tags, fused parts or gaps DEL508-508): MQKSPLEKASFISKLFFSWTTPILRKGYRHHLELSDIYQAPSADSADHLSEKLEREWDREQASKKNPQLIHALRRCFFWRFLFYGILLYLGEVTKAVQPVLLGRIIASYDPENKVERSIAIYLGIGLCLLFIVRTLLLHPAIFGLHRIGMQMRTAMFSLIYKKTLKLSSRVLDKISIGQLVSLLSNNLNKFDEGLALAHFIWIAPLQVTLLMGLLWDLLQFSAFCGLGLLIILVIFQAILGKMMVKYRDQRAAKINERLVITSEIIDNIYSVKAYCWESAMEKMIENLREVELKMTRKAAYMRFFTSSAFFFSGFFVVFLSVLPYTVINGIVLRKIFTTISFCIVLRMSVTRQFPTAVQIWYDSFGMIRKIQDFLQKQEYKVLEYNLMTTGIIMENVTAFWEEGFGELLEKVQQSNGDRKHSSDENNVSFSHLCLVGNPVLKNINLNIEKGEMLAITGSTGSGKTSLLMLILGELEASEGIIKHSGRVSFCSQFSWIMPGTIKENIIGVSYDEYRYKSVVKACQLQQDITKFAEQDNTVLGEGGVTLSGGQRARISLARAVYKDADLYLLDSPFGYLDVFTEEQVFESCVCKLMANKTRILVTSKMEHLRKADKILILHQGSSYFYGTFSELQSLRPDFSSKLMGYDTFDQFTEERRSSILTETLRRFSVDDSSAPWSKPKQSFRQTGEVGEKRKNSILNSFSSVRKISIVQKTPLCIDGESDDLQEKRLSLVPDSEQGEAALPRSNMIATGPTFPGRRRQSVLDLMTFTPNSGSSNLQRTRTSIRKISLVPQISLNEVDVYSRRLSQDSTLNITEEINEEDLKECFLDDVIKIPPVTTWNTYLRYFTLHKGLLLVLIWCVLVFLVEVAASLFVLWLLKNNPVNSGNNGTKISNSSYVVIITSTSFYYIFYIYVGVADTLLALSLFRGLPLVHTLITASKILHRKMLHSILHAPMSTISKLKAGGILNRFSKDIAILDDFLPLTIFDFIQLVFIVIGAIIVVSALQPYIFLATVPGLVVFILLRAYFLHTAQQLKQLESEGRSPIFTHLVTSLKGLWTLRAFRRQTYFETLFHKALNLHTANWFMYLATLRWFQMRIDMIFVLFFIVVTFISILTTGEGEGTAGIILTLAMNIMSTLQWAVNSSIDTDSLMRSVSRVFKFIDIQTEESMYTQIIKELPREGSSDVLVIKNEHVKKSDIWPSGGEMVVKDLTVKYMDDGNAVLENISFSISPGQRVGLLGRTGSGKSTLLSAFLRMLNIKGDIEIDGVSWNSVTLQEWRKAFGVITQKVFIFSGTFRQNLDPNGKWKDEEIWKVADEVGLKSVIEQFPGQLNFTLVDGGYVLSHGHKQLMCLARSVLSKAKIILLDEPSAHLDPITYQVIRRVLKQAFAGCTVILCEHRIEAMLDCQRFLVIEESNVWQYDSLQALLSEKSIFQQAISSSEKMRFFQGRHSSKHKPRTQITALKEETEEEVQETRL
Description: (§2) CF mice homozygous for the delF508-CFTR mutation (abbreviated CftrF508del) in the 129/FVB outbred background (CftrtmlEUR, F508del, FVB/129) were obtained from Erasmus Medical Center Rotterdam, The Netherlands (CF coordinated action program EU FP6 LSHM-CT-2005-018932). These studies and procedures were approved by the local Ethics Committee for Animal Welfare (IACUC No 713). Young adult CF mice and their wild-type (wt) littermates were housed in static isolator cages at the animal care specific pathogen-free facility of Charles River (Calco, Italy). CftrF508del mice were treated with daily intraperitoneal injections of cysteamine (100 μl of 0.05 M in PBS) (Sigma Aldrich, M9768) or IE1 (100 μl of 0.075-0.05-0.025-0.0125 M, in PBS) for 5 d or with cysteamine (5 d) or IE1 different concentrations followed by 10 d or 20 d of PBS alone (n=5 mice per group) (19,20).
(§3) The proteins of cell lines lysates or lung or small intestine homogenates, obtained from treated and untreated cells or mice, were quantified by a Bio-Rad protein assay to ensure equal protein loading before immunoblot analysis. Fifty micrograms of proteins were loaded in each lane. […]

[3] = test system: BECN1, (phospho)p42/44 MAPK; experiment: Immunoblot of whole homogenates from intestinal and lung tissues of CftrF508del mice; format: in vivo
Description: as §2, §3

F508delCFTR = F508delCFTR (Homo sapiens, UniProt P13569, DEL508-508); experiment: SPQ assay in primary nasal cells collected by nasal brushing from CF patients; format: cell-based; parameters: Freshly isolated brushed nasal epithelial cells were collected by nasal brushing; endogenous in cells; host or cells: primary nasal epithelial cells from F508del-homozygous CF patients
Chain of F508delCFTR (P13569 with tags, fused parts or gaps DEL508-508): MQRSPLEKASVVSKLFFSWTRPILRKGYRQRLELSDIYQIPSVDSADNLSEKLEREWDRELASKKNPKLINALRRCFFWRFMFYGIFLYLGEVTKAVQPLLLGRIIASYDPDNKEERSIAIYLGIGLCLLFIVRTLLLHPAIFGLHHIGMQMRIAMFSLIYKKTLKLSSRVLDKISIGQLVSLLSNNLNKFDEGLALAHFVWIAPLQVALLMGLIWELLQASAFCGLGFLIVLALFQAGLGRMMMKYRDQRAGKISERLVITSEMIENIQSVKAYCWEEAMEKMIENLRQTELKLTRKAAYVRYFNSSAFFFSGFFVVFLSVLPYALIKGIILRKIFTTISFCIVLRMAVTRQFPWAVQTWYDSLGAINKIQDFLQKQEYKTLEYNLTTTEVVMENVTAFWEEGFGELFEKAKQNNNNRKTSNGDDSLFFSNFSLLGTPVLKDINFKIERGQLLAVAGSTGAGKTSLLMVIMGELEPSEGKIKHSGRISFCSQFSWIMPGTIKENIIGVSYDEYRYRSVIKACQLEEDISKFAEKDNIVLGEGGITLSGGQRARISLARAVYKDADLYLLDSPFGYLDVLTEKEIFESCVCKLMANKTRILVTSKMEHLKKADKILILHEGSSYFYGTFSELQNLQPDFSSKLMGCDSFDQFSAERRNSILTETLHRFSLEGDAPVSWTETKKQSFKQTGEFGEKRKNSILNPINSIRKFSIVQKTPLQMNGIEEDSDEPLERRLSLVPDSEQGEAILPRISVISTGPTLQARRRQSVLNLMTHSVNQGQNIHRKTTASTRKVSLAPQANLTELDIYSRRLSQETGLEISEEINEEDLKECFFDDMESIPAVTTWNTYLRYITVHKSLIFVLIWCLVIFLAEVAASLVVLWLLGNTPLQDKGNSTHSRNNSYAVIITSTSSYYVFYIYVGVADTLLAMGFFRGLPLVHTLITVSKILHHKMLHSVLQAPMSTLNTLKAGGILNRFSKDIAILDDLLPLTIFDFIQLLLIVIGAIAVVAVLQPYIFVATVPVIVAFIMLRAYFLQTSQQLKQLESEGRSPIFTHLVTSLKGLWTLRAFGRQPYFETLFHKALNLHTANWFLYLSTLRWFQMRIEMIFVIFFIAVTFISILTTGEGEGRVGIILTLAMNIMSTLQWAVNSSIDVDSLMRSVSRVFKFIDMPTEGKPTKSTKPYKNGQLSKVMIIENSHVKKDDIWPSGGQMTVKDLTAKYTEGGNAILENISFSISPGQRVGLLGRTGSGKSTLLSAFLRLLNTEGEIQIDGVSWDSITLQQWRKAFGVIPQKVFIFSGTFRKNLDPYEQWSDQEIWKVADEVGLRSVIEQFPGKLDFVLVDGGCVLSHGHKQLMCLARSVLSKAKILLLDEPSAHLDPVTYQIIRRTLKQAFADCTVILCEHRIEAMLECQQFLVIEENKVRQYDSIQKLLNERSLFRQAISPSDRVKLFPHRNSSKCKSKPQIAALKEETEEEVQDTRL
Method: The compounds of formula I have marked effects on CFTR function. A representative number of compounds of formula I (Compounds IE1-IE4; Table I) were tested in comparison to cysteamine and amifostine through SPQ assay in F508delCFTR homozygous bronchial epithelial cell lines (CFBE41o-) transfected with F508delCFTR (FIG. 1) and in ex vivo in nasal cells collected by nasal brushing from CF patients (FIGS. 2A and B). Freshly isolated brushed nasal epithelial cells were collected by nasal brushing, as previously described (21, 21) from 10 F508del-CFTR homozygous CF patients and from 5 non-CF healthy volunteers recruited from staff at the same time points. Both patients and healthy volunteers gave written informed consent. […] Brushes with cells were immediately transferred into RPMI 1640 medium (Invitrogen) containing 1% penicillin-streptomycin (Lonza, 17-602E), in 15-ml sterilized tubes. The tubes were incubated at 37° C. for 2 h on a thermo shaker, to remove all cell from brushes; the brushes were then removed and the cells centrifuged at 800×g (2000 rpm) for 20 min. The supernatant fractions were discarded and the cell pellet treated with […] of trypsin-versene (EDTA) solution (Lonza, 17-161) for 4 min at 37° C. to disaggregate possible cell clusters. Trypsin solution was inactivated by adding 3 ml of serum-free Bronchial Epithelial cell Growth Medium BEGM (Clonetics, Lonza, CC3170). After centrifugation at 800×g (2000 rpm) for 10 min, cells were placed in […] 25 flasks (Sarstedt Ltd, CS300) with 10 ml of BEGM medium. Nonspecific epithelial cells were removed during the daily cell washing and medium changes.

CFTR [4] = molecular target: CFTR (Homo sapiens, UniProt P13569, DEL508-508); experiment: Immunoblot detection of CFTR in nasal primary cells; format: cell-based; parameters: Freshly isolated brushed nasal epithelial cells were collected by nasal brushing; endogenous in cells; host or cells: primary nasal epithelial cells from F508del-homozygous CF patients
Chain of CFTR (Homo sapiens, UniProt P13569, DEL508-508) (P13569 with tags, fused parts or gaps DEL508-508): as above
Description: Freshly isolated brushed nasal epithelial cells were collected by nasal brushing, as previously described (21, 21) from 10 F508del-CFTR homozygous CF patients and from 5 non-CF healthy volunteers recruited from staff at the same time points. Both patients and healthy volunteers gave written informed consent. […] Brushes with cells were immediately transferred into RPMI 1640 medium (Invitrogen) containing 1% penicillin-streptomycin (Lonza, 17-602E), in 15-ml sterilized tubes. The tubes were incubated at 37° C. for 2 h on a thermo shaker, to remove all cell from brushes; the brushes were then removed and the cells centrifuged at 800×g (2000 rpm) for 20 min. The supernatant fractions were discarded and the cell pellet treated with […] of trypsin-versene (EDTA) solution (Lonza, 17-161) for 4 min at 37° C. to disaggregate possible cell clusters. Trypsin solution was inactivated by adding 3 ml of serum-free Bronchial Epithelial cell Growth Medium BEGM (Clonetics, Lonza, CC3170). After centrifugation at 800×g (2000 rpm) for 10 min, cells were placed in CELLC T 25 flasks (Sarstedt Ltd, CS300) with 10 ml of BEGM medium. Nonspecific epithelial cells were removed during the daily cell washing and medium changes.
as §1

CFTR function after wash out with EGCG added (F508delCFTR; 48 h after wash out, epigallocatechin gallate added, nasal primary cells): effect is preserved | CFTR function after wash out (F508delCFTR; 48 h after wash out, nasal primary cells): loses its efficacy | Efficacy on CFTR function compared with VX-809 (F508delCFTR; VX-809 3 μM, FIG. 2A): more efficacious than VX-809 | CFTR function after wash out (F508delCFTR; up to 24 h after wash out, nasal cells): able to maintain CFTR function | PM-resident CFTR protein after washout (CFTR [4]; 0.1 μM, 24 h of washout): maintained | PM-resident CFTR protein after washout (CFTR [4]; 48 h of washout): decreases | PM-resident CFTR protein after washout with EGCG added (CFTR [4]; 48 h of washout, EGCG added): completely maintained
SMILES: NCCCS [IE1, 3-aminopropane-1-thiol]
BECN1 level [1]: able to restore BECN1 | Inflammation biomarkers (phospho)p42/44 MAPK [1]: decrease | p62 levels [1]: reduce p62 levels | Effect on (phospho)p42/44 MAPK after 48 h in presence of EGCG ([1]; 48 h, EGCG): maintained | Effect on BECN1 and p62 after 48 h with EGCG addition ([1]; 48 h, EGCG addition): preserved | Effect on (phospho)p42/44 MAPK after 48 h ([1]; after 48 h): completely lost | Effect on BECN1 and p62 after 48 h ([1]; after 48 h): disappears | CFTR protein levels after wash out (immunoblot) (CFTR [2]): sustaining the protein well beyond 20 d of wash out | BECN1 in whole homogenates [3]: able to restore BECN1 | Biomarkers (phospho)p42/44 MAPK in whole homogenates [3]: decrease biomarkers (phospho)p42/44 MAPK | PM-resident CFTR protein (CFTR [4]; 0.1 μM): a sizeable fraction of the channel resided at the PM
